One experiment concerns LAPC-4 cells. Description: Cell proliferation assay (alamarBlue), LAPC-4. The format is cell-based. The settings on record: Homo sapiens, LAPC4, Prostate, 1 nM methyltrienolone, 168 hours, inhibition of cell proliferation. How it is done: (§1) In accordance with the invention, the ability of the substances to inhibit cell proliferation was determined Cell viability was determined by means of the alamarBlue® reagent (Invitrogen) in a Victor X3 Multilabel Reader (Perkin Elmer). The excitation wavelength was 530 nm and the emission wavelength […].
The LAPC-4 cells (ATCC, PTA-1441TM) were sown at a concentration of 4000 cells/well in 100 μl of growth medium (RPMI1640, 2 mM L-glutamine, 10% cFCS) on 96-well microtitre plates. One day later, the LAPC-4 cells were treated with 1 nM methyltrienolone and various substance dilutions.
(§2) The MDA-MB-231 cells (DSMZ, ACC 732) were sown at a concentration of 4000 cells/well in 100 μl of growth medium (DMEM/Ham's F12 medium, 10% FCS) on 96-well microtitre plates. After overnight incubation at 37° C., the fluorescence values (CI values) were determined. Then the plates were treated with various substance dilutions (1E-5 M, 3E-6 M, 1E-6 M, 3E-7 M, 1E-7 M, 3E-8 M, 1E-8 M) and incubated at 37° C. for 72 (MV-4-11, LOX-IMVI cells), 96 (MOLM-13, B16F10, […] cells), 120 (MOLP-8, KMS-12-PE cells) or 168 (LAPC-4 cells) hours. Subsequently, the fluorescence values were determined (CO values). For the data analysis, the CI values were subtracted from the CO values and the results were compared between cells which had been treated with various dilutions of the substance or only with buffer solution. The ICso values (substance concentration needed for 50% inhibition of cell proliferation) were calculated therefrom.
(§3) The substances were tested in the cell lines in Table 1, which represent the indications specified by way of example: […]

For another experiment, the system named is MOLM-13 cells. Description: Cell proliferation assay (alamarBlue), MOLM-13. Particulars: Homo sapiens, Leukaemia, 96 hours, inhibition of cell proliferation. Format: cell-based. How it is done: as §1
The MOLM-13 cells (DSMZ, ACC 554) were sown at a concentration of 4000 cells/well in 100 μl of growth medium (RPMI1640, 10% FCS) on 96-well microtitre plates.
as §2, §3

A further experiment has as its system B16F10 cells. Description: Cell proliferation assay (alamarBlue), B16F10. Format: cell-based. The settings on record: Mus musculus, B16-F10, Melanoma (BRAF wild-type), 96 hours, inhibition of cell proliferation. How it is done: as §1
The B16F10 cells (ATCC, CRL-6475) were sown at a concentration of 300-500 cells/well in 100 μl of growth medium (DMEM with phenol red, 10% FCS) on 96-well microtitre plates.
as §2, §3

For the next experiment, the target named is T1, BRD4 (BD1) (Homo sapiens, UniProt O60885).
T1 construct: amino acids 67-152, longer constructs also being possible, preferably amino acids 44-168; made in house; host or cells: E. coli
Description: Binding assay BRD4/acetylated peptide H4 (TR-FRET protein-protein interaction assay). The text has this: To assess the BRD4 binding strength of the substances described in this application, the ability thereof to inhibit the interaction between BRD4 (BD1) and acetylated histone H4 in a dose-dependent manner was quantified.
For this purpose, a time-resolved fluorescence resonance energy transfer (TR-FRET) assay was used, which measures the binding between N-terminally His6-tagged BRD4 (BD1) (amino acids 67-152, longer constructs also being possible, preferably amino acids 44-168) and a synthetic acetylated histone H4 (Ac-H4) peptide with sequence GRGK(Ac)GGK(Ac)GLGK(Ac)GGAK(Ac)RHGSGSK-biotin. The recombinant BRD4 protein produced in-house according to Filippakopoulos et al., Nature, 2010, 468:1119-1123 was expressed in E. coli and purified by means of (Ni-NTA) affinity and (Sephadex G-75) size exclusion chromatography. The Ac-H4 peptide can be purchased, for example, from Biosyntan (Berlin, Germany).
In the assay, typically 11 different concentrations of each substance (0.1 nM, 0.33 nM, 1.1 nM, 3.8 nM, 13 nM, 44 nM, 0.15 μM, 0.51 μM, 1.7 μM, 5.9 μM and 20 μM) were analysed as duplicates on the same microtitre plate. For this purpose, 100-fold concentrated solutions in DMSO were prepared by serial dilutions (1:3.4) of a 2 mM stock solution into a clear, 384-well microtitre plate (Greiner Bio-One, Frickenhausen, Germany). From this, 50 nl were transferred into a black test plate (Greiner Bio-One, Frickenhausen, Germany). The test was started by the addition of 2 μl of a 2.5-fold concentrated BRD4 solution (final concentration typically 10 nM in the 5 μl of reaction volume) in aqueous assay buffer [50 mM HEPES pH 7.5, 50 mM sodium chloride (NaCl), 0.25 mM CHAPS and 0.05% serum albumin (BSA)] to the substances in the test plate. This was followed by a 10-minute incubation step at 22° C. for the pre-equilibration of putative complexes between BRD4 and the substances.
The mixture was then incubated in the dark at 22° C. for one hour and then at 4° C. for at least 3 hours and for no longer than overnight. The formation of BRD4/Ac-H4 complexes was determined by the measurement of the resonance energy transfer from the streptavidin-Eu cryptate to the anti-6His-XL665 antibody present in the reaction. For this purpose, the fluorescence emission was measured at 620 nm and 665 nm after excitation at 330-350 nm in a TR-FRET measuring instrument, for example a Rubystar or Pherastar (both from BMG Lab Technologies, Offenburg, Germany) or a Viewlux (Perkin-Elmer). The ratio of the emissions at 665 nm and at 622 nm was taken as an indicator of the amount of BRD4/Ac-H4 complexes formed.
The data (ratios) obtained were normalized, with 0% inhibition corresponding to the mean from the measurements for a set of controls (typically 32 data points) in which all the reagents were present. In these, in place of test substances, 50 nl of DMSO (100%) were used Inhibition of 100% corresponded to the mean from the measurements for a set of controls (typically 32 data points) in which all the reagents except BRD4 were present. The IC50 was determined by regression analysis based on a 4-parameter equation (minimum, maximum, IC50, Hill; Y=max+(min−max)/(1+(X/IC50)^Hill)).

The next experiment deals with MDA-MB-231 cells. Nature of the experiment: Cell proliferation assay (alamarBlue), MDA-MB-231. The format is cell-based. Particulars: Homo sapiens, Breast, 96 hours, inhibition of cell proliferation. Here is the method: as §1, §2, §3
A further experiment deals with MOLP-8 cells. Description: Cell proliferation assay (alamarBlue), MOLP-8. Particulars: Homo sapiens, Multiple myeloma, 120 hours, inhibition of cell proliferation. Format: cell-based. Here is the method: as §1
The MOLP-8 cells (DSMZ, ACC 569) were sown at a concentration of 4000 cells/well in 100 μl of growth medium (RPMI1640, 20% FCS) on 96-well microtitre plates.
as §2, §3

pIC50: −log10 of the molar value. Read-outs that look alike come from different tables or passages of the source.

`COC(=O)C[C@@H]1N=C(c2ccccc2)c2c(cn(C)c2C)-n2c(C)nnc21` [Example 2, 2-(4S)-(1,7,8-Trimethyl-6-phenyl-4,8-dihydropyrrolo[3,4f][1,2,4]triazolo[4,3-a][1,4]diazepin-4-yl)acetic acid methyl ester]: the pIC50 was 7.52 in the experiment with LAPC-4 cells; 6.48 with MOLM-13 cells; 7.10 with B16F10 cells; 8.00 on BRD4 (BD1); 7.05 in the experiment with MDA-MB-231 cells.
For `COC(=O)C[C@@H]1N=C(c2ccc(Cl)cc2)c2c(cn(C)c2C)-n2c(C)nnc21` [Example 1], the pIC50 with MOLP-8 cells is 7.30; with LAPC-4 cells, 7.30; in the experiment with MOLM-13 cells, 6.89; with B16F10 cells, 7.10; at BRD4 (BD1), 8.00; in the experiment on MDA-MB-231 cells it was 7.05.
With `Cc1c2c(cn1C)-n1c(C)nnc1[C@H](CC(=O)N1CC(F)C1)N=C2c1ccc(Cl)cc1` [Example 5, (−)-2-[(4S)-6-(4-Chlorophenyl)-1,7,8-trimethyl-4,8-dihydropyrrolo[3,4f][1,2,4]triazolo [4,3-a][1,4]diazepin-4-yl]-1-(3-fluoroazetidin-1-yl)ethan-1-one], the pIC50 was 6.43 in the experiment with MOLP-8 cells; 6.43 in the experiment with LAPC-4 cells; 6.28 in the experiment on MOLM-13 cells; 6.24 in the experiment with B16F10 cells; 7.15 at BRD4 (BD1) (BRD4 (BD1) / acetylated histone H4 peptide, TR-FRET, read-out: IC50 (BRD4)).

(Values after patent US20150376196A1, “4-SUBSTITUTED PYRROLO- AND PYRAZOLO-DIAZEPINES” (BAYER PHARMA AKTIENGESELLSCHAFT, priority 2013, published 2015).)
